Like-named read-outs stand apart in the source and are kept apart here.
Test system: cancer cell lines from the cancer cell line encyclopedia (CCLE)
Assay: Cell line profiling (CLiP) proliferation experiment
Assay type: cell-based
Conditions: Homo sapiens; for IC50: read-out: Crossing Point; for EC50: read-out: Inflection Point
Method: Compound profiling experiment and data analysis was performed as previously described. Data was imported and plotted using the Tibco Spotfire DXP application. Lines were categorized as sensitive, intermediate and refractory as follows: Amax<-40 & Inflection Point <2 ~ Sensitive, Amax>-20 & Inflection Point >10 ~ Refractory, all else were called Intermediate. Cancer Cell line HG-U133 Plus 2 data was processed and normalized as described. […] Five sets of refractory cell lines were generated from the pool of refractory cell lines trying to match the lineage composition of the set of sensitive cell lines. The limma package was used as previously described to perform the statistical comparison.

[1] = HCC1187, cell line HCC1187, breast
[2] = HCC1954, cell line HCC1954, breast
[3] = HCT-15, cell line HCT-15, large_intestine
[4] = HCT-116, cell line HCT 116, large_intestine
[5] = HEC-1-A, cell line HEC-1-A, endometrium
[6] = HPBALL, cell line HPB-ALL, haematopoietic_and_lymphoid_tissue
[7] = Hs 294T, cell line Hs 294T, skin
[8] = Hs 695T, cell line Hs 695T, skin

In the case of `CC(C)[C@@]12C[C@@H](O)[C@@](C)(O1)[C@@H]1CC[C@@H](C)[C@H]1[C@@H]2OC(=O)/C=C/c1ccccc1` [Englerin B], the IC50 (HCC1143, cell line HCC1143) is reported as > 30 µM, the IC50 [1] is reported as 13.8 µM and the EC50 [1] is reported as 8.08 µM. For the same compound, the IC50 (HCC1395, cell line HCC1395, breast) was > 30 µM, the IC50 (HCC1395, cell line HCC1395) was > 30 µM and the IC50 (HCC1419, cell line HCC1419, breast) was 25.1 µM. The IC50 (HCC1428, cell line HCC1428, breast) was > 30 µM, the IC50 (HCC1428, cell line HCC1428) was > 30 µM and the IC50 (HCC1569, cell line HCC1569, breast) was 28.7 µM. The IC50 (HCC1806, cell line HCC1806, breast) was > 30 µM, the IC50 (HCC1806, cell line HCC1806) was > 30 µM and the IC50 (HCC1937, cell line HCC1937, breast) was 28.9 µM. It also gave an IC50 [2] of 13.9 µM, an EC50 [2] of 11.3 µM and an EC50 (HCC1954, cell line HCC1954) of 11.3 µM. For the same compound, the IC50 (HCC2218, cell line HCC2218, breast) was > 30 µM, the IC50 (HCC2218, cell line HCC2218) was > 30 µM and the IC50 [3] was > 30 µM. The EC50 [3] was 10.4 µM, the IC50 (HCT-15, cell line HCT-15) was > 30 µM and the IC50 [4] was > 30 µM. For the same compound, the EC50 [4] was 8.15 µM, the IC50 (HCT-116, cell line HCT 116) was > 30 µM and the IC50 [5] was > 30 µM. The EC50 [5] was 16.7 µM, the IC50 (HEC-1-A, cell line HEC-1-A) was > 30 µM and the IC50 (HEL 92.1.7, cell line HEL 92.1.7, haematopoietic_and_lymphoid_tissue) was 23.8 µM. The IC50 (HGC-27, cell line HGC-27, stomach) was 10.9 µM, the IC50 (HMCB, cell line HMCB, skin) was > 30 µM and the EC50 (HMCB, cell line HMCB, skin) was 18.8 µM. The IC50 (HMCB, cell line HMCB) was > 30 µM, the EC50 (HMCB, cell line HMCB) was 18.8 µM and the IC50 (HPBALL, cell line HPB-ALL (haematopoietic_and_lymphoid_tissue, acute_lymphoblastic_T_cell_leukaemia)) was 17.5 µM. The IC50 [6] was 17.5 µM, the EC50 [6] was 11.7 µM and the IC50 (HRT-18, cell line HRT-18, large_intestine) was 20.1 µM. For the same compound, the IC50 (HT55, cell line HT55, large_intestine) was > 30 µM, the IC50 (HT55, cell line HT55) was > 30 µM and the IC50 (HT-29, cell line HT-29, large_intestine) was 19 µM. For the same compound, the IC50 (HT-144, cell line HT-144, skin) was > 30 µM, the IC50 (HT-144, cell line HT-144) was > 30 µM and the IC50 (HT-1080, cell line HT-1080, soft_tissue) was > 30 µM. For the same compound, the IC50 (HT-1080, cell line HT-1080) was > 30 µM, the IC50 (HT-1376, cell line HT-1376, urinary_tract) was > 30 µM and the IC50 (HT-1376, cell line HT-1376) was > 30 µM. For the same compound, the IC50 [7] was > 30 µM, the EC50 [7] was 22.6 µM and the IC50 (Hs 294T, cell line Hs 294T) was > 30 µM. For the same compound, the IC50 [8] was > 30 µM, the EC50 [8] was 21.6 µM and the IC50 (Hs 695T, cell line Hs 695T) was > 30 µM. For the same compound, the IC50 (Hs-578T, cell line Hs 578T, breast) was > 30 µM, the IC50 (Hs-578T, cell line Hs 578T) was > 30 µM and the IC50 (HuH-1, cell line huH-1, liver) was > 30 µM. For the same compound, the EC50 (HuH-1, cell line huH-1, liver) was 7.57 µM, the IC50 (HuH-1, huH-1 (liver)) was > 30 µM and the IC50 (HuP-T3, cell line HUP-T3, pancreas) was > 30 µM. The IC50 (HuP-T3, cell line HUP-T3) was > 30 µM, the IC50 (IGR-1, IGR-1 cells) was > 30 µM and the IC50 (IGR-1, cell line IGR-1, skin) was > 30 µM. For the same compound, the IC50 (IGR-37, cell line IGR-37, skin) was 24.3 µM, the IC50 (IGROV-1, IGROV1 cells) was > 30 µM and the IC50 (IGROV-1, cell line IGROV1, ovary) was > 30 µM. It also gave an IC50 (IMR-32, IMR-32) of 24.2 µM, an EC50 (IMR-32, IMR-32) of 24.2 µM and an IC50 (IMR-32, IMR-32 cells) of 24.2 µM. The EC50 (IMR-32, IMR-32 cells) was 24.2 µM, the IC50 (IPC-298, IPC-298) was > 30 µM and the EC50 (IPC-298, IPC-298) was 1.04 µM. The IC50 (IPC-298, cell line IPC-298) was > 30 µM, the IC50 (Ishikawa, Ishikawa (Heraklio) 02 ER- cells) was > 30 µM and the IC50 (Ishikawa, Ishikawa (Heraklio) 02 ER-) was > 30 µM. For the same compound, the IC50 (J82, J82) was > 30 µM, the EC50 (J82, J82) was 20.1 µM and the IC50 (JIMT-1, JIMT-1) was > 30 µM. The IC50 (JIMT-1, JIMT-1 cells) was > 30 µM, the IC50 (JJN-3, JJN-3) was > 30 µM and the IC50 (JJN-3, cell line JJN-3) was > 30 µM. The IC50 (JVM-2, JVM-2) was 21 µM, the EC50 (JVM-2, JVM-2) was 21 µM and the IC50 (JVM-2, JVM-2 cells) was 21 µM. The EC50 (JVM-2, JVM-2 cells) was 21 µM, the IC50 (JVM-3, JVM-3) was > 30 µM and the IC50 (JVM-3, cell line JVM-3) was > 30 µM. For the same compound, the IC50 (JeKo-1, JeKo-1) was 8.21 µM, the EC50 (JeKo-1, JeKo-1) was 7.64 µM and the EC50 (JeKo-1, JeKo-1 cells) was 7.64 µM. The IC50 (Jurkat) was 16.1 µM, the IC50 (K562, K-562) was > 30 µM and the EC50 (K562, K-562) was 9.57 µM. For the same compound, the IC50 (K562, cell line K-562) was > 30 µM and the IC50 (KARPAS-299, KARPAS-299) was 13.2 µM.

— article PMC4476799, “Englerin A Agonizes the TRPC4/C5 Cation Channels to Inhibit Tumor Cell Line Proliferation” (PLoS ONE, 2015)
